Measured values reported in patent US9421273B2, “Silicon-containing fumaric acid esters” (Biogen Idec MA Inc., priority 2011, dated 2016).
Where a name gives a salt, the structure may show the parent alone.

Columns and labels:
[1] = tested on: Nrf2 (ARE-luciferase reporter) in MCF7/ARE-D3 cells; test: Nrf2 activation cell-based assay, ARE-luciferase reporter, MCF7/ARE-D3 cell line; design: species or system Human; conditions: for Maximum Nrf2 Activation Fold Change: luciferase fold change over DMSO control
Method: (§1) Human cancer cell line DLD-1 and breast cancer cell line MCF7 reporter stable cell lines were generated by transfection with a firefly luciferase reporter construct harboring the luciferase cDNA cloned downstream of eight catenated copies of the antioxidant response element (ARE: SEQ ID NO.:1).
(§2) To measure Nrf2 activation in the ARE-luciferase reporter cell lines, the cells were plated in 96-well plates at 20-50 k cells/well 24 hours prior to stimulation with the test compounds. The test compounds were prepared in dimethylsulfoxide (DMSO) and diluted with culture media to required concentrations (final DMSO concentrations <0.3%). The reporter cells were harvested 24 hours-48 hours after addition of the compounds and lysed for detection of luciferase activity. Luciferase activity in the lysates was monitored using the Bright-Glo Luciferase Assay System of Promega and Tecan Genios Pro plate reader.
(§3) Luciferase induction in the compound-treated cells was calculated as fold change over the baseline activity detected in control cultures treated with DMSO-containing media.

[2] = tested on: Nrf2 (ARE-luciferase reporter) in DLD-1/ARE-E2 cells; test: Nrf2 activation cell-based assay, ARE-luciferase reporter, DLD-1/ARE-E2 cell line; design: species or system Human; conditions: for Concentration at maximum Nrf2 activation fold change (@ [uM]) / Maximum Nrf2 Activation Fold Change: DLD-1/ARE-E2; for Maximum Nrf2 Activation Fold Change: luciferase fold change over DMSO control; for Activation of ARE-dependent signaling of the luciferase reporter construct: summary in words of Table 1 (both reporter cell lines)
Method: as §1, §2, §3

Compound | Concentration at maximum Nrf2 activation fold change (@ [uM]) ([1]; 24 hr stimulation) | Maximum Nrf2 Activation Fold Change ([1]; 24 hr stimulation) | Concentration at maximum Nrf2 activation fold change (@ [uM]) ([1]; 48 hr stimulation) | Maximum Nrf2 Activation Fold Change ([1]; 48 hr stimulation) | Concentration at maximum Nrf2 activation fold change (@ [uM]) ([2]; 24 hr stimulation) | Maximum Nrf2 Activation Fold Change ([2]; 24 hr stimulation) | Concentration at maximum Nrf2 activation fold change (@ [uM]) ([2]; 48 hr stimulation) | Maximum Nrf2 Activation Fold Change ([2]; 48 hr stimulation) | Activation of ARE-dependent signaling of the luciferase reporter construct [2]
COC(=O)/C=C/C(=O)OC[Si](OC)(OC)OC [Compound 12, methyl ((trimethoxysilyl)methyl) fumarate] | 500 µM | 49 | 500 µM | 65 | 250 µM | 24 | 375 µM | 48 | able to activate ARE-dependent signaling
COC(=O)/C=C/C(=O)OC [DMF, dimethyl fumarate, reference compound] | 94 µM | 24 | 94 µM | 45 | 31 µM | 11 | 47 µM | 13 | –
COC(=O)/C=C/C(=O)O[Si](C)(C)OC(=O)/C=C/C(=O)OC [Compound 11, (E)-O,O′-(dimethylsilanediyl)dimethyl difumarate] | 750 µM | 97 | 500 µM | 126 | 1000 µM | 42 | 1000 µM | 43 | able to activate ARE-dependent signaling
COC(=O)/C=C/C(=O)O [MMF, monomethyl fumarate, reference compound] | 1000 µM | 56 | 1000 µM | 88 | 1000 µM | 7 | 1000 µM | 14 | –
